The target of the assay is IGF-1R (Homo sapiens (Human), UniProt P08069). The experiment in a line: Example B-1: IGF-1R Assay (PC3 cells, IGF1 stimulation, AlphaLISA). In kind it is cell-based. The note with it: 200 ng/mL IGF1 stimulation, read-out: Biological Activity against IGF-1R IC50. The method, boiled down:
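PC3 cells were serum-starved 2 h, treated with serially diluted compounds for 2 h, then stimulated with IGF1 (200 ng/mL final) for 30 min. Lysates were read by AlphaLISA; % inhibition was calculated relative to vehicle and EC80 controls, with IC50 values binned into ranges.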

This is an account of results in patent US20250171431A1, “HETEROCYCLIC INHIBITORS OF IGF-1R FOR TREATMENT OF DISEASE” (HORIZON THERAPEUTICS IRELAND DAC, priority 2023, published 2025).

IGF-1R, sequence (P08069 31-1367): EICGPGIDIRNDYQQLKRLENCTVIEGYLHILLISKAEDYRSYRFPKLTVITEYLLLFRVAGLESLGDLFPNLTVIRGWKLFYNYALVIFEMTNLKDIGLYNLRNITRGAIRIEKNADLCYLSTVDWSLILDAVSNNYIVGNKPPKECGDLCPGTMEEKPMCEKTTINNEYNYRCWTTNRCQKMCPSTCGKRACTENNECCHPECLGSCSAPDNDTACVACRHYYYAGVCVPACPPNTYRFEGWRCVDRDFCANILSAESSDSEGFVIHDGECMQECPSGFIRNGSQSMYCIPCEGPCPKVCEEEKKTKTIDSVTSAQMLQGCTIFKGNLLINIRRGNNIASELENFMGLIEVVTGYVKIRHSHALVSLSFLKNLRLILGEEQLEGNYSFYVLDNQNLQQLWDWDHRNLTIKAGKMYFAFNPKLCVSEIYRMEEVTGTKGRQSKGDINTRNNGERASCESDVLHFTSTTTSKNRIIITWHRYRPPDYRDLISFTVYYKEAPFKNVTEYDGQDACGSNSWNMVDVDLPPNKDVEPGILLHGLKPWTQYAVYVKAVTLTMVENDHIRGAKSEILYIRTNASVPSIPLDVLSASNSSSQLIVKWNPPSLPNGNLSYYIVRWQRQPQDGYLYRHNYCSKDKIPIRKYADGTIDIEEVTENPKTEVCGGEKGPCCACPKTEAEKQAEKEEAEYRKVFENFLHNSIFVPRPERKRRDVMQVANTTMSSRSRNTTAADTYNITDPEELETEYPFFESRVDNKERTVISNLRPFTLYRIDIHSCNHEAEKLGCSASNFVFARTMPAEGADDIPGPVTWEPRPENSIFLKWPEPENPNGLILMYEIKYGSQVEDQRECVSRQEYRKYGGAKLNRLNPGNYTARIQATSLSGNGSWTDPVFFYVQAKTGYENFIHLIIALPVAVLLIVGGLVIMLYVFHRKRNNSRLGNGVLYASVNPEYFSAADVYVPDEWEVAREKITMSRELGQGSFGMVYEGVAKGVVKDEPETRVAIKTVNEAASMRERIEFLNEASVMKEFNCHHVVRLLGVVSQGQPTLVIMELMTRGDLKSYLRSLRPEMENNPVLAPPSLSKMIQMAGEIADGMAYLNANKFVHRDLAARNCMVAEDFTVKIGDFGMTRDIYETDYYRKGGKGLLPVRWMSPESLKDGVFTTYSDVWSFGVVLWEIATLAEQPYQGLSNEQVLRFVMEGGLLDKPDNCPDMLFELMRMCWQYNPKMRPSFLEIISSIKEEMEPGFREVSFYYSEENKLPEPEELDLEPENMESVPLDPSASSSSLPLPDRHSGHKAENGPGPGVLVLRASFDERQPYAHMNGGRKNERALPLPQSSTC

On to `COC1CCc2ncc(Nc3ccnc(Nc4ccc(OCCCN5CCOCC5)cc4)n3)cc2C1` (centres unmarked) [Compound 67, 4-(6-methoxy-5,6,7,8-tetrahydro-3-quinolylamino)-2-[p-(3-morpholinopropoxy)phenylamino] pyrimidine], for which the IC50 lay within 0.5 to 2 µM.

With `COc1cc(Nc2nccc(Nc3cnc4cc(F)c(F)cc4c3)n2)cnc1N1CCN(C)C(C(F)(F)F)C1` (centres unmarked) [Compound 475, 4-(6,7-difluoro-3-quinolylamino)-2-{5-methoxy-6-[4-methyl-3-(trifluoromethyl)-1-piperazinyl]-3-pyridylamino}pyrimidine], the half-maximal inhibitory concentration (IC50) is 0.5 to 2 µM.

On to `COc1cc(Nc2nccc(Nc3cc4cccc(F)c4[nH]c3=O)n2)cnc1N1CC2(COC2)C1` [Compound 234, 8-fluoro-3-(2-{5-methoxy-6-(2-oxa-6-aza-6-spiro[3.3]heptyl)-3-pyridylamino}-4-pyrimidinylamino)-1,2-dihydro-2-quinolinone], for which the IC50 is at most 0.5 µM.

Consider `COc1nc(N2CCN(C)CC2)ccc1Nc1nccc(Nc2cc3cccc(F)c3nc2O)n1` [Compound 90, 8-fluoro-3-{2-[2-methoxy-6-(4-methyl-1-piperazinyl)-3-pyridylamino]-4-pyrimidinylamino}-2-quinolinol], for which the IC50 is at most 0.5 µM.

Take `COc1cc(Nc2nccc(Nc3cc4ccccc4[nH]c3=O)n2)cnc1O[C@H]1C[C@@H](N(C)C)C1` [Compound 11, 3-(2-{5-methoxy-6-[(1s,3s)-3-(dimethylamino)cyclobutoxy]-3-pyridylamino}-4-pyrimidinylamino)-2(1H)-quinolinone]: the 50% inhibitory concentration (IC50) is at most 0.5 µM.

Take `COc1cc(N2CCC(C)(O)CC2)ncc1Nc1nccc(Nc2cnc3cc(F)c(F)cc3c2)n1` [Compound 488, 1-{5-[4-(6,7-difluoro-3-quinolylamino)-2-pyrimidinylamino]-4-methoxy-2-pyridyl}-4-methyl-4-piperidinol]: the IC50 was at most 0.5 µM.

On to `COc1cc(N2CCN(CC#N)CC2)ncc1Nc1nccc(Nc2cc3cccc(F)c3[nH]c2=O)n1` [Compound 226, (4-{5-[4-(8-fluoro-2-oxo-1,2-dihydro-3-quinolylamino)-2-pyrimidinylamino]-4-methoxy-2-pyridyl}-1-piperazinyl)acetonitrile], for which the 50% inhibitory concentration (IC50) was at most 0.5 µM.

In the case of `c1cc(Nc2cnc3c(c2)OCCO3)nc(Nc2ccc(OCCCN3CCOCC3)cc2)n1` [Compound 388, 4-(2,3-dihydro-1,4-dioxa-5-aza-7-naphthylamino)-2-[p-(3-morpholinopropoxy)phenylamino]pyrimidine], the IC50 was at most 0.5 µM.

On to `COc1cc(Nc2nccc(Nc3cnc4ccc(Br)cc4c3)n2)ccc1OCCCN1CCCCC1` [Compound 421, 4-(6-bromo-3-quinolylamino)-2-[3-methoxy-4-(3-piperidinopropoxy)phenylamino]pyrimidine], for which the half-inhibitory concentration (IC50) was at most 0.5 µM.

With `CN(C)[C@H]1C[C@H](Oc2ccc(Nc3nccc(Nc4cnc5ccc(Cl)cc5c4)n3)cc2)C1` [Compound 319, 4-(6-chloro-3-quinolylamino)-2-{p-[(1r,3r)-3-(dimethylamino)cyclobutoxy]phenylamino}pyrimidine], the IC50 is at most 0.5 µM.

For `COc1cc(Nc2nccc(Nc3cnc4ccc(Cl)cc4c3)n2)cnc1O[C@H]1C[C@@H](N(C)C)C1` [Compound 131, N4-(6-chloroquinolin-3-yl)-N2-(6-((1s,3s)-3-(dimethylamino)cyclobutoxy)-5-methoxypyridin-3-yl)pyrimidine-2,4-diamine], the IC50 was at most 0.5 µM.

On to `COc1cc(Nc2nccc(Nc3cnc4cc(F)c(F)cc4c3)n2)cnc1N1CCNC(C(C)(C)O)C1` (centres unmarked) [Compound 52, 2-(4-{5-[4-(6,7-difluoro-3-quinolylamino)-2-pyrimidinylamino]-3-methoxy-2-pyridyl}-2-piperazinyl)-2-propanol], for which the IC50 was at most 0.5 µM.

Take `COc1cc(Nc2nccc(Nc3cc4c(nc3C(N)=O)CCCC4)n2)ccc1O[C@H]1C[C@@H](N(C)C)C1` [Compound 256, 3-(2-{3-methoxy-4-[(1s,3s)-3-(dimethylamino)cyclobutoxy]phenylamino}-4-pyrimidinylamino)-5,6,7,8-tetrahydro-2-quinolinecarboxamide]: the concentration for half-maximal inhibition (IC50) was at most 0.5 µM.

As to `COc1cc(Nc2nccc(Nc3cnc4c(c3)CCCC4)n2)ccc1O[C@H]1C[C@@H](N(C)C)C1` [Compound 364, 2-{3-methoxy-4-[(1s,3s)-3-(dimethylamino)cyclobutoxy]phenylamino}-4-(5,6,7,8-tetrahydro-3-quinolylamino)pyrimidine], the half-maximal inhibitory concentration (IC50) is at most 0.5 µM.

Take `COc1ccc2ncc(Nc3ccnc(Nc4ccc(O[C@H]5C[C@@H](N(C)C)C5)c(OC)c4)n3)cc2c1` [Compound 277, 4-(6-methoxy-3-quinolylamino)-2-{3-methoxy-4-[(1s,3s)-3-(dimethylamino)cyclobutoxy]phenylamino}pyrimidine]: the half-inhibitory concentration (IC50) is at most 0.5 µM.

As for `COc1cc(Nc2nccc(Nc3cnc4c(C)cccc4c3)n2)ccc1OCCCN1CCCCC1` [Compound 99, 2-[3-methoxy-4-(3-piperidinopropoxy)phenylamino]-4-(8-methyl-3-quinolylamino)pyrimidine], the half-maximal inhibitory concentration (IC50) was at most 0.5 µM.

As for `Cc1ccc2cc(Nc3ccnc(Nc4ccc(OCCCN5CCOCC5)cc4)n3)cnc2c1` [Compound 407, 4-(7-methyl-3-quinolylamino)-2-[p-(3-morpholinopropoxy)phenylamino]pyrimidine], the IC50 was 0.5 to 2 µM.

Take `COc1cc(Nc2nccc(Nc3cc(C)c4ccccc4c3)n2)ccc1OCCCN1CCCCC1` [Compound 454, 2-[3-methoxy-4-(3-piperidinopropoxy)phenylamino]-4-(4-methyl-2-naphthylamino) pyrimidine]: the half-inhibitory concentration (IC50) was at most 0.5 µM.

Consider `COc1cc(N2CCC(C)(O)CC2)ncc1Nc1nccc(Nc2cc3cccc(F)c3[nH]c2=O)n1` [Compound 230, 8-fluoro-3-{2-[6-(4-hydroxy-4-methyl-1-piperidyl)-4-methoxy-3-pyridylamino]-4-pyrimidinylamino}-1,2-dihydro-2-quinolinone], for which the IC50 is at most 0.5 µM.

For the compound `COc1nc(N2CCC(C)(O)CC2)ccc1Nc1nccc(Nc2cnc3cc(F)c(F)cc3c2)n1` [Compound 487, 1-{5-[4-(6,7-difluoro-3-quinolylamino)-2-pyrimidinylamino]-6-methoxy-2-pyridyl}-4-methyl-4-piperidinol], the IC50 is at most 0.5 µM.

Take `FC(F)(F)Oc1cccc2cc(Nc3ccnc(Nc4ccc(OCCCN5CCOCC5)cc4)n3)cnc12` [Compound 404, 2-[p-(3-morpholinopropoxy)phenylamino]-4-(8-trifluoromethoxy-3-quinolylamino)pyrimidine]: the IC50 is 2 to 10 µM.

As for `COc1ccc2cc(Nc3ccnc(Nc4ccc(OCCCN5CCS(=O)(=O)CC5)cc4)n3)cnc2c1` [Compound 400, 4-(3-{p-[4-(7-methoxy-3-quinolylamino)-2-pyrimidinylamino]phenoxy}propyl)-1λ^6,4-thiazinane-1,1-dione], the IC50 was 0.5 to 2 µM.

On to `COc1cc(Nc2nccc(Nc3cnc4c(F)cc(F)cc4c3)n2)cnc1O[C@H]1C[C@@H](N(C)C)C1` [Compound 290, 4-(6,8-difluoro-3-quinolylamino)-2-{5-methoxy-6-[(1s,3s)-3-(dimethylamino)cyclobutoxy]-3-pyridylamino}pyrimidine], for which the IC50 was at most 0.5 µM.

In general, IC50 refers to the concentration needed to halve the response being measured.
